Measured values reported in BindingDB's records for doi:10.7270/Q2F18X40 (Nmmlsc, 2009).

biological target: Ras-related protein Rab-7a (Canis lupus familiaris, UniProt P18067); test: Rab7 GTP binding inhibitors, analog potency, SAR follow-up, biochemical, oxadiazole analogs, multiplex bead flow cytometry (AID 2031); details: inactive by the depositor's call
Sequence (P18067 whole entry): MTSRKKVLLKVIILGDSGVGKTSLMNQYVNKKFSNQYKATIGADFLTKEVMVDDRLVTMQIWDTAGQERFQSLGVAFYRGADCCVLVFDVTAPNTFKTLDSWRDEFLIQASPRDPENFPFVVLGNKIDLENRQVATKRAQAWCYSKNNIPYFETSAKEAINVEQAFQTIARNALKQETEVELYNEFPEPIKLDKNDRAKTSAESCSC

EC50 [µM]	SMILES
14.4	COc1ccc(-c2noc(CCCC(=O)N3CCN(c4cc(C)ccc4C)CC3)n2)cc1 [KUC103353N]
30	COc1ccc(-c2ccc(CCC(=O)N3CCN(c4cc(C)ccc4C)CC3)[nH]2)cc1 [1-[4-(2,5-dimethylphenyl)piperazin-1-yl]-3-[5-(4-methoxyphenyl)-1H-pyrrol-2-yl]propan-1-one]
3.43	COc1cccc(-c2noc(CCC(=O)N3CCN(c4cc(C)ccc4C)CC3)n2)c1
7.85	Cc1ccc(C)c(N2CCN(C(=O)CCc3nc(-c4cccc(F)c4)no3)CC2)c1 [KUC103366N]
30	COc1ccc(-c2noc(CCC(=O)N3CCN(c4ccc(C(F)(F)F)cc4)CC3)n2)cc1 [3-[3-(4-methoxyphenyl)-1,2,4-oxadiazol-5-yl]-1-[4-[4-(trifluoromethyl)phenyl]piperazin-1-yl]propan-1-one]
4.2	Cc1ccc(C)c(N2CCN(C(=O)CCc3nc(-c4ccccc4Br)no3)CC2)c1 [3-[3-(2-bromophenyl)-1,2,4-oxadiazol-5-yl]-1-[4-(2,5-dimethylphenyl)-1-piperazinyl]-1-propanone]
30	Cc1ccc(C)c(N2CCN(C(=O)CCc3nc(-c4ccccc4F)no3)CC2)c1 [KUC103401N]
1.95	COc1ccc(-c2noc(CCC(=O)N3CCN(c4ccccc4C(F)(F)F)CC3)n2)cc1 [UNM-0000306082]
5.46	Cc1ccc(C)c(N2CCN(C(=O)CCc3nc(-c4ccccc4C)no3)CC2)c1
30	COc1ccc(-c2cc(CCC(=O)N3CCN(c4cc(C)ccc4C)CC3)[nH]n2)cc1 [UNM-0000306150]
0.664	Cc1ccc(C)c(N2CCN(C(=O)CCc3nc(-c4ccc(F)cc4)no3)CC2)c1 [KUC103364N]
30	Cc1ccc(C)c(N2CCN(C(=O)CCc3nc(-c4ccccc4C(F)(F)F)no3)CC2)c1
4.39	Cc1ccc(-c2noc(CCC(=O)N3CCN(c4cc(C)ccc4C)CC3)n2)cc1 [1-[4-(2,5-dimethylphenyl)-1-piperazinyl]-3-[3-(4-methylphenyl)-1,2,4-oxadiazol-5-yl]-1-propanone]
30	COc1ccc(-c2noc(CCC(=O)N3CCN(c4ccccc4C)CC3)n2)cc1
1.16	Cc1ccc(C)c(N2CCN(C(=O)CCc3nc(-c4ccccc4)no3)CC2)c1 [UNM-0000306070]
30	Cc1ccc(C)c(N2CCN(C(=O)CCc3nc(-c4ccc(C(F)(F)F)cc4)no3)CC2)c1 [1-[4-(2,5-dimethylphenyl)-1-piperazinyl]-3-[3-[4-(trifluoromethyl)phenyl]-1,2,4-oxadiazol-5-yl]-1-propanone]

Further lines, the compound ahead of its results:

SMILES	EC50 [µM]
COc1ccc(-c2cc(CCC(=O)N3CCN(c4cc(C)ccc4C)CC3)on2)cc1 [1-[4-(2,5-dimethylphenyl)piperazin-1-yl]-3-[3-(4-methoxyphenyl)-1,2-oxazol-5-yl]propan-1-one]	0.305
Cc1ccc(C)c(N2CCN(C(=O)CCc3nc(-c4ccc(Br)cc4)no3)CC2)c1 [UNM-0000306072]	1.6
COc1ccc(-c2ccc(CCC(=O)N3CCN(c4cc(C)ccc4C)CC3)o2)cc1 [KUC103447N]	30
Cc1ccc(C)c(N2CCN(C(=O)CCc3nc(-c4ccc(N(C)C)cc4)no3)CC2)c1 [KUC103409N]	30
COc1ccc(-c2noc(CCC(=O)N3CCN(c4ccccc4Br)CC3)n2)cc1 [KUC103370N]	2.24
Cc1ccc(C)c(N2CCN(C(=O)CCc3nc(-c4cccc(Br)c4)no3)CC2)c1 [KUC103367N]	3.51
COc1ccccc1-c1noc(CCC(=O)N2CCN(c3cc(C)ccc3C)CC2)n1 [UNM-0000306071]	30
COc1ccc(-c2noc(CCC(=O)N3CCN(c4cccc(F)c4)CC3)n2)cc1 [1-[4-(3-fluorophenyl)piperazin-1-yl]-3-[3-(4-methoxyphenyl)-1,2,4-oxadiazol-5-yl]propan-1-one]	30
COc1ccc(-c2noc(CCC(=O)N3CCN(c4cccc(C)c4C)CC3)n2)cc1 [1-[4-(2,3-dimethylphenyl)-1-piperazinyl]-3-[3-(4-methoxyphenyl)-1,2,4-oxadiazol-5-yl]-1-propanone]	1.56
COc1ccc(-c2noc(CCC(=O)N3CCN(c4ccc(F)cc4)CC3)n2)cc1 [KUC103398N]	30
COc1ccc(-c2cccc(CCC(=O)N3CCN(c4cc(C)ccc4C)CC3)c2)cc1 [UNM-0000306127]	30
Cc1ccc(C)c(N2CCN(C(=O)CCc3nc(-c4ccc(Cl)cc4)no3)CC2)c1 [UNM-0000306083]	2.91
Cc1ccc(C)c(N2CCN(C(=O)CCc3nc(-c4cccc(C(F)(F)F)c4)no3)CC2)c1 [KUC103380N]	0.708
COc1ccc(-c2ccc(CCC(=O)N3CCN(c4cc(C)ccc4C)CC3)s2)cc1	30
Cc1ccc(C)c(N2CCN(C(=O)CCc3nc(-c4cccc(Cl)c4)no3)CC2)c1 [UNM-0000306086]	30
COc1ccc(-c2coc(CCC(=O)N3CCN(c4cc(C)ccc4C)CC3)n2)cc1 [1-[4-(2,5-dimethylphenyl)piperazin-1-yl]-3-[4-(4-methoxyphenyl)-1,3-oxazol-2-yl]propan-1-one]	30
COc1ccc(-c2noc(CCC(=O)N3CCN(c4cccc(Br)c4)CC3)n2)cc1 [1-[4-(3-bromophenyl)-1-piperazinyl]-3-[3-(4-methoxyphenyl)-1,2,4-oxadiazol-5-yl]-1-propanone]	30
COc1ccc(-c2noc(CCC(=O)N3CCN(c4cccc(Cl)c4)CC3)n2)cc1	31

SMILES	EC50 [µM]
COc1ccc(-c2noc(CCC(=O)N3CCN(c4ccc(C)cc4)CC3)n2)cc1 [3-[3-(4-methoxyphenyl)-1,2,4-oxadiazol-5-yl]-1-[4-(4-methylphenyl)piperazin-1-yl]propan-1-one]	30
Cc1ccc(C)c(N2CCN(C(=O)CCc3nc(-c4ccccc4Cl)no3)CC2)c1 [3-[3-(2-chlorophenyl)-1,2,4-oxadiazol-5-yl]-1-[4-(2,5-dimethylphenyl)-1-piperazinyl]-1-propanone]	30
COc1ccc(-c2noc(CCC(=O)N3CCN(c4ccccc4OC)CC3)n2)cc1 [3-[3-(4-methoxyphenyl)-1,2,4-oxadiazol-5-yl]-1-[4-(2-methoxyphenyl)-1-piperazinyl]-1-propanone]	30
COc1ccc(-c2noc(CC(=O)N3CCN(c4cc(C)ccc4C)CC3)n2)cc1 [1-[4-(2,5-dimethylphenyl)piperazin-1-yl]-2-[3-(4-methoxyphenyl)-1,2,4-oxadiazol-5-yl]ethanone]	30
COc1ccc(-c2noc(CCC(=O)N3CCN(c4cccc(C)c4)CC3)n2)cc1 [UNM-0000306125]	30
COc1ccc(-c2noc(CCC(=O)N3CCN(c4ccccc4F)CC3)n2)cc1 [1-[4-(2-fluorophenyl)piperazin-1-yl]-3-[3-(4-methoxyphenyl)-1,2,4-oxadiazol-5-yl]propan-1-one]	0.632
COc1ccc(-c2noc(CCC(=O)N3CCN(c4ccccc4Cl)CC3)n2)cc1 [1-[4-(2-chlorophenyl)piperazin-1-yl]-3-[3-(4-methoxyphenyl)-1,2,4-oxadiazol-5-yl]propan-1-one]	2.28
COc1ccc(-c2noc(CCC(=O)N3CCN(c4cc(C)ccc4C)CC3)n2)cc1 [1-[4-(2,5-dimethylphenyl)-1-piperazinyl]-3-[3-(4-methoxyphenyl)-1,2,4-oxadiazol-5-yl]-1-propanone]	2.39
COc1ccc(-c2noc(CCCCC(=O)N3CCN(c4cc(C)ccc4C)CC3)n2)cc1 [1-[4-(2,5-dimethylphenyl)-1-piperazinyl]-5-[3-(4-methoxyphenyl)-1,2,4-oxadiazol-5-yl]-1-pentanone]	30
COc1ccc(-c2noc(CCC(=O)N3CCN(c4ccc(OC)cc4)CC3)n2)cc1 [3-[3-(4-methoxyphenyl)-1,2,4-oxadiazol-5-yl]-1-[4-(4-methoxyphenyl)piperazin-1-yl]propan-1-one]	30
COc1ccc(-c2noc(CCC(=O)N3CCN(c4cccc(C(F)(F)F)c4)CC3)n2)cc1 [1-{3-[3-(4-methoxyphenyl)-1,2,4-oxadiazol-5-yl]propanoyl}-4-[3-(trifluoromethyl)phenyl]piperazine]	30
Cc1cccc(-c2noc(CCC(=O)N3CCN(c4cc(C)ccc4C)CC3)n2)c1 [1-[4-(2,5-dimethylphenyl)piperazin-1-yl]-3-[3-(3-methylphenyl)-1,2,4-oxadiazol-5-yl]propan-1-one]	1.03
COc1ccc(-c2noc(CCC(=O)N3CCN(c4ccc(Br)cc4)CC3)n2)cc1 [1-[4-(4-bromophenyl)piperazin-1-yl]-3-[3-(4-methoxyphenyl)-1,2,4-oxadiazol-5-yl]propan-1-one]	30
COc1ccc(-c2noc(CCC(=O)N3CCC(c4cc(C)ccc4C)CC3)n2)cc1 [KUC103432N]	1.33
COc1ccc(-c2noc(CCC(=O)N3CCN(c4ccc(Cl)cc4)CC3)n2)cc1 [UNM-0000306121]	30
COc1ccc(-c2noc(CCC(=O)N3CCN(c4cccc(OC)c4)CC3)n2)cc1 [KUC103349N]	30
COc1ccc(-c2noc(CCC(=O)N3CCN(c4ccccc4)CC3)n2)cc1 [3-[3-(4-methoxyphenyl)-1,2,4-oxadiazol-5-yl]-1-(4-phenylpiperazin-1-yl)propan-1-one]	30
